Results from patent publication US20160303095A1, “METHODS OF TREATING HEPATITIS B VIRUS” (Gilead Sciences, Inc., priority 2015, published 2016).
Read-outs that look alike come from different tables or passages of the source.

System: HBV
Experiment: PHH screening protocol: HBsAg and HBeAg levels by MSD ELISA
Assay type: cell-based, Hepatitis B Virus
Conditions: for EC50: Hepatitis B virus
Protocol: HBV antiviral activity was assessed in primary human hepatocytes (PHH) in a 96-well format. PHH were (Life Technologies, Chicago, 11) plated on collagen coated tissue culture plates using Plating Media containing William's Medium E supplemented with 1% Penicillin/Streptomycin, 4 μg/mL human recombinant insulin, 2 mM glutamax, 15 mM Hepes, 1 μM dexamethasone and 5% fetal bovine serum (Life Technologies, Cat#A12176-01 Life Technologies, Chicago, Ill.). After a 4-hour incubation at 37° C., cells were switched to Maintenance Media (Cat#CM4000-A15564 Life Technologies, Chicago, Ill.) containing William's Medium E supplemented with 0.5% Penicillin/Streptomycin, 6.25 μg/mL human recombinant insulin, 6.25 μg/mL human transferrin, 6.25 ng/mL selenous acid, 1.25 mg/mL bovine serum albumin, 5.35 μg/mL linoleic acid, 2 mM glutamax, 15 mM Hepes, 0.1 μM dexamethasone, 2% fetal bovine serum, and 2% DMSO (Cat#D2650 Sigma, St. Louis, Mo.). On the next day, cells were infected with approximately 500 genome equivalent of selected HBV clinical isolates (21P (GTA), 32P (GTA), 91P (GTA), AD38 (GTD), 65P (GTD) or 30P (GTE); ProteoGenex, Culver City, Calif.) per cell in Maintenance Media supplemented with 4% PEG 8000 (Cat#V3011 Promega, Madison, Wis.). After 24 hour incubation cells were washed three times with William's Medium E and fed with fresh Maintenance Media. Small molecule inhibitors targeting KDMs were serially diluted in Maintenance Media and added to cells at 3 days post infection (p.i.). Media with compounds was replenished every 2-3 days. Media collected on various days was used for determination of HBsAg and HBeAg levels by MSD ELISA, and HBV RNA by qPCR. All data were converted into percentages of the untreated control and non-linear regression was performed to calculate EC50 or CC50 values.

For `CCOC(=O)c1ccnc(CNCC(=O)N(CC)CCN(C)C)c1` [Example 8], the EC50 (336 h, read-out: HBsAg EC50, virus AD38, PHH donor 8130, d 20, compound removed after 14 days of treatment) was 81 nM, the EC50 (336 h, read-out: HBsAg EC50, virus AD38, PHH donor 8130, d 25, compound removed after 14 days of treatment) was 80 nM and the EC50 (336 h, read-out: HBsAg EC50, virus AD38, PHH donor 8130, d 31, compound removed after 14 days of treatment) was 12 nM. The EC50 (408 h, read-out: HBsAg EC50, virus 21P (GTA), PHH 4239, day 17 p.i.) was 700 nM, the EC50 (408 h, read-out: HBsAg EC50, virus 21P (GTA), PHH 8130, day 17 p.i.) was 200 nM and the EC50 (408 h, read-out: HBsAg EC50, virus 21P (GTA), PHH 8181, day 17 p.i.) was 20 nM. The EC50 (408 h, read-out: HBsAg EC50, virus 30P (GTE), PHH 4239, day 17 p.i.) was 300 nM, the EC50 (408 h, read-out: HBsAg EC50, virus 30P (GTE), PHH 8130, day 17 p.i.) was 200 nM and the EC50 (408 h, read-out: HBsAg EC50, virus 30P (GTE), PHH 8181, day 17 p.i.) was under 5 nM. It also gave an EC50 (408 h, read-out: HBsAg EC50, virus 32P (GTA), PHH 4239, day 17 p.i.) of 30 nM, an EC50 (408 h, read-out: HBsAg EC50, virus 32P (GTA), PHH 8130, day 17 p.i.) of 80 nM and an EC50 (408 h, read-out: HBsAg EC50, virus 32P (GTA), PHH 8181, day 17 p.i.) of under 2 nM. For the same molecule, the EC50 (408 h, read-out: HBsAg EC50, virus 65P (GTD), PHH 4239, day 17 p.i.) was 300 nM, the EC50 (408 h, read-out: HBsAg EC50, virus 65P (GTD), PHH 8130, day 17 p.i.) was 2400 nM and the EC50 (408 h, read-out: HBsAg EC50, virus 65P (GTD), PHH 8181, day 17 p.i.) was under 2 nM. For the same molecule, the EC50 (408 h, read-out: HBsAg EC50, virus 91P (GTA), PHH 4239, day 17 p.i.) was 60 nM, the EC50 (408 h, read-out: HBsAg EC50, virus 91P (GTA), PHH 8130, day 17 p.i.) was 30 nM and the EC50 (408 h, read-out: HBsAg EC50, virus 91P (GTA), PHH 8181, day 17 p.i.) was under 6 nM. The EC50 (408 h, read-out: HBsAg EC50, virus AD38 (GTD), PHH 4239, day 17 p.i.) was 2000 nM, the EC50 (408 h, read-out: HBsAg EC50, virus AD38 (GTD), PHH 8130, day 17 p.i.) was 1400 nM and the EC50 (408 h, read-out: HBsAg EC50, virus AD38 (GTD), PHH 8181, day 17 p.i.) was under 5 nM. For the same molecule, the EC50 (read-out: EC50 values (HBsAg), PHH donors 4239 and 8130, across patient viruses) was 30 to 2400 nM, the EC50 (read-out: HBeAg EC50, D 8, PHH donor 8181, virus 21p) was over 50000 nM and the EC50 (read-out: HBeAg EC50, D 13, PHH donor 8181, virus 21p) was 160 nM. It also gave an EC50 (read-out: HBeAg EC50, D 17, PHH donor 8181, virus 21p) of under 20 nM, an EC50 (read-out: HBeAg EC50, D 22, PHH donor 8181, virus 21p) of under 20 nM and an EC50 (read-out: HBeAg EC50, D 27, PHH donor 8181, virus 21p) of under 20 nM. The EC50 (read-out: HBeAg EC50, D 31, PHH donor 8181, virus 21p) was under 20 nM, the EC50 (read-out: HBeAg EC50, HBV-infected PHH) was 188 nM and the EC50 (read-out: HBsAg EC50, D 8, PHH donor 8181, virus 21p) was over 50000 nM. For the same molecule, the EC50 (read-out: HBsAg EC50, D 13, PHH donor 8181, virus 21p) was 150 nM, the EC50 (read-out: HBsAg EC50, D 17, PHH donor 8181, virus 21p) was under 20 nM and the EC50 (read-out: HBsAg EC50, D 22, PHH donor 8181, virus 21p) was under 20 nM. The EC50 (read-out: HBsAg EC50, D 27, PHH donor 8181, virus 21p) was under 20 nM, the EC50 (read-out: HBsAg EC50, D 31, PHH donor 8181, virus 21p) was under 20 nM and the EC50 (read-out: HBsAg EC50, HBV-infected PHH) was 67 nM. For the same molecule, the “inhibition of HBV HBsAg and HBeAg secretion compared to untreated cells” value (PHH donor 8181) was “more than 10 fold” and the “time dependency of anti HBV activity” value (PHH donor 8181 infected with patient virus 21p (GTA)) was “time dependent”.
